Test results: patent publication US9062041B2 (Bayer Intellectual Property GmbH, priority 2011, dated 2015)

Key:
cumulus-oocyte complexes = test: Cumulus expansion test in vitro; format: cell-based, mice (strain: B6D2F1); conditions: for inhibition at 1 µM / inhibition at 0.5 µM: Mus musculus, 0.3 μM PGE2 for stimulation; for inhibition at 1 µM: read-out: % reduction at 1 μM (reduction in the cumulus expansion); for inhibition at 0.5 µM: read-out: % reduction at 0.5 μm (reduction in the cumulus expansion)
Description: 4.2. Cumulus Expansions Test In Vitro In immature female mice (strain: B6D2F1 from Charles River), at an age of 14-18 days, the folliculogenesis was induced by a single administration (intraperitoneal) of 10 IU of PMSG (pregnant mare serum gonadotropin; Sigma G-4877, Lot 68H0909). 47-50 hours after the injection, the ovaries were removed and the cumulus-oocyte complexes removed. At this stage, the cumulus complex is not yet expanded. The cumulus-oocyte complexes were now incubated for 20-24 hours with prostaglandin E2 (PGE) (0.3 μM), vehicle control (ethanol) or test substances. Medium: alpha-MEM medium with 0.1 mM IBMX, pyruvate (0.23 mM), glutamine (2 mM), pen/strep 100 IU/ml pen. and 100 μg/ml strep.), HSA (8 mg/ml) and foetal bovine serum (FBS, 10%). The cumulus expansion was then established through the subdivision into four stages (after Vanderhyden et al. Dev Biol. 1990 August; 140(2):307-317).

[1] = target: EP2 subtype of the human PGE2 receptor (Homo sapiens, UniProt P43116); test: cAMP antagonism test on the human EP2 receptor (HTRF cAMP detection); format: cell-based; conditions: hEP2 receptor, read-out: Antagonism hEP2 IC50
EP2 subtype of the human PGE2 receptor, sequence (P43116 whole entry): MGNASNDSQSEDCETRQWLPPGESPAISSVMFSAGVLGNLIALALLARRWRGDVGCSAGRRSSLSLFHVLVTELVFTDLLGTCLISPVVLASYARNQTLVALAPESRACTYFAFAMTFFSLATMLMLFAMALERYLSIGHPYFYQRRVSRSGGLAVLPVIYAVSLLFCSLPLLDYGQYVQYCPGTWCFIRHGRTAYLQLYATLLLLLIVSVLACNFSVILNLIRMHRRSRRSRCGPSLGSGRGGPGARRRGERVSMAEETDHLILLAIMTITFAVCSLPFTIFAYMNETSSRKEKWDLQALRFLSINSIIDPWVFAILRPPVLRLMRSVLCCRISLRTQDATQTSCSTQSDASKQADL
Method in brief: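 Read-out is a competitive HTRF for cAMP: lysate cAMP displaces cAMP-d2 from Eu cryptate-labelled antibody, and antagonism raises the 665/620 nm ratio. Compound (0.8 nM–16.5 μM) added to EP2 cells 20 min at RT before 60 min PGE2 challenge (3× stock 1.5 nM) with IBMX, followed by 20 min lysis.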

[2] = target: EP4 subtype of the human PGE2 receptor (Homo sapiens, UniProt P35408); test: cAMP antagonism test on the human EP4 receptor (HTRF cAMP detection); format: cell-based; conditions: selectivity towards hEP4, IC50 measured by cAMP antagonism test
EP4 subtype of the human PGE2 receptor, sequence (P35408 whole entry): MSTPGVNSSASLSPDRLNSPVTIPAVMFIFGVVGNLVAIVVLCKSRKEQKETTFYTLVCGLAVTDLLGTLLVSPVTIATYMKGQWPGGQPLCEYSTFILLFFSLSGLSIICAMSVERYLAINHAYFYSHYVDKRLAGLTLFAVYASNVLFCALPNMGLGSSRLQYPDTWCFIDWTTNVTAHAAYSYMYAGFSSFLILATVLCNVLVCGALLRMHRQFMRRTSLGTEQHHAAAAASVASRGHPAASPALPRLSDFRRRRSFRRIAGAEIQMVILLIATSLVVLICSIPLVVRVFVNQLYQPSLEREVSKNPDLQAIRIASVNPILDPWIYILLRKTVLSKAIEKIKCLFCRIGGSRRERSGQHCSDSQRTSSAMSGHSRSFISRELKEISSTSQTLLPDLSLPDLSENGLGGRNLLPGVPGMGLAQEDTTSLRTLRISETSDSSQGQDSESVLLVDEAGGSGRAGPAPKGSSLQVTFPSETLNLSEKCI
Method in brief: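 Competitive HTRF cAMP read-out (cAMP-d2 vs Eu-cryptate anti-cAMP antibody, 665/620 nm ratio) on lysed human EP4 cells. Compound (0.8 nM–16.5 μM) applied 20 min at RT before 60 min PGE2 challenge (3× solution 0.3 nM, IBMX present); 20 min lysis precedes reading.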

human PGD receptor = target: T1, human PGD receptor (Homo sapiens, UniProt Q13258); test: cAMP antagonism test on the human prostaglandin D receptor (HTRF cAMP detection); format: cell-based; conditions: selectivity towards hDP, IC50 measured by cAMP antagonism test
T1 sequence (Q13258 1-359): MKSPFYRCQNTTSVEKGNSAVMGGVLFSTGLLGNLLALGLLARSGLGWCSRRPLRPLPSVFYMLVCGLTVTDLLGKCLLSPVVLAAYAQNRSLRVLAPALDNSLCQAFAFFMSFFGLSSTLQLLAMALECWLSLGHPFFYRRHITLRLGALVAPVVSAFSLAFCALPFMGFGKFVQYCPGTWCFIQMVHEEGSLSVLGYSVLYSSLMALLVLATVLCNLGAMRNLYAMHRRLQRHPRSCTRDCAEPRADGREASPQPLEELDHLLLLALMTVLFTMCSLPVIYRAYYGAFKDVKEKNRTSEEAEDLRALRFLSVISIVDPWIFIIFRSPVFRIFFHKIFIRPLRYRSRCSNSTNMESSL
Method in brief: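 HTRF competition read-out (665/620 nm ratio ×10000), where higher FRET means less cAMP, i.e. antagonism. Compounds (0.8 nM–16.5 μM) were preincubated 20 min at RT with cells and cAMP-d2, PGD2 (3× solution, 6 nM) in IBMX-containing PBS added for 30 min at RT, then cells lysed 20 min.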

[3] = test system: female cynomolgus monkeys (Macaca Fascicularis); test: In-vivo action on fertility in non-human primates (mating study); conditions: 6 months, 10 mg/kg (Example 17 once daily, Example 56 twice daily)
Description: 4.4 In-Vivo Action on Fertility in Non-Human Primates (Cynomolgus):
In order to study the effect of substances on fertility, mating studies can be performed in monkeys (Jensen et al. Contraception 81 (2010) 165-171). For this, the test substances are administered to female cynomolgus monkeys (Macaca Fascicularis) which are being kept in groups, then the animals are mated with a male animal. Matings are checked for by sperm detection in daily vaginal smears. Pregnancies resulting therefrom are identified by hormone determinations and ultrasound examinations. Through the changes in the serum oestradiol concentrations during the cycle, (rise before the midcycle LH peak), the fertile phase within a cycle of the individual animals can be determined Matings in this fertile period are described as “timed matings” (matings in the fertile phase). Apart from the absolute number of pregnancies occurring, the effect on the fertility can also be expressed as pregnancies per “timed matings”.
To test the action of EP2 receptor antagonists on fertility in monkeys, Examples 17 and 56 according to the invention were administered over 6 months, dissolved in 0.5 ml castor oil. Example 17 was administered once daily at a dosage of 10 mg/kg (n=10 animals), while Example 56 was administered twice daily at a dosage of 10 mg/kg (n=9 animals). Only the vehicle was administered to a control group (n=10 animals). In the first month of the treatment, no male animal was placed with the female animals. After this, female and male animals were kept together over 5 months, with detection of pregnancies and cycle monitoring.

Row | IC50 [1] [nM] | Selectivity hEP2/hEP4 [2] | Selectivity hEP2/hDP (human PGD receptor) | SMILES | suppression of the cumulus expansion (cumulus-oocyte complexes; concentration of 100-200 μM, PGE2 0.3 μM) | inhibition at 1 µM (cumulus-oocyte complexes) [%] | inhibition at 0.5 µM (cumulus-oocyte complexes) [%] | % Pregnancies/"timed mating" [3] [%] | Pregnancies [3]
1 | 5.94 | xxx (xxx > 100) | xxx (xxx > 100) | Cc1c(C(=O)NCC(F)(F)F)ccc2nn(CC3CCN(C(=O)c4ccc(Oc5ccc(C(F)(F)F)cc5)cc4)CC3)cc12 [Example 291, 4-methyl-N-(2,2,2-trifluoroethyl)-2-[(1-{4-[4-(trifluoromethyl)phenoxy]-benzoyl}piperidin-4-yl)methyl]-2H-indazol-5-carboxamide] |  | 73 | 76 |  | 
2 | 13.9 | xxx (xxx > 100) | xxx (xxx > 100) | Cc1c(C(=O)NCC(F)(F)F)ccc2nn(CC3CCN(C(=O)c4ccc(Oc5ccc(C(F)(F)F)nc5)cc4)CC3)cc12 [Example 303, 4-methyl-N-(2,2,2-trifluoroethyl)-2-{[1-(4-{[6-(trifluoromethyl)pyridin-3-yl]-oxy}benzoyl)piperidin-4-yl]methyl}-2H-indazol-5-carboxamide] |  | 47 | 38 |  | 
3 | 6.26 | xxx (xxx > 100) | xxx (xxx > 100) | COCCNC(=O)c1ccc2nn(CC3CCN(C(=O)c4ccc(Oc5ccc(C(F)(F)F)cn5)cc4)CC3)cc2c1C [Example 345, N-(2-methoxyethyl)-4-methyl-2-{[1-(4-{[5-(trifluoromethyl)pyridin-2-yl]oxy}-benzoyl)piperidin-4-yl]methyl}-2H-indazol-5-carboxamide] |  | 36 | 18 |  | 

More lines, now with the values behind:

Row | SMILES | IC50 [1] [nM] | Selectivity hEP2/hEP4 [2] | Selectivity hEP2/hDP (human PGD receptor) | suppression of the cumulus expansion (cumulus-oocyte complexes; concentration of 100-200 μM, PGE2 0.3 μM) | inhibition at 1 µM (cumulus-oocyte complexes) [%] | inhibition at 0.5 µM (cumulus-oocyte complexes) [%] | % Pregnancies/"timed mating" [3] [%] | Pregnancies [3]
4 | CC(C)Oc1ccc2c(=O)c3cc(C(=O)O)ccc3oc2c1 [AH6809, reference compound] |  |  |  | ca. 30% |  |  |  | 
5 | COCCNC(=O)c1ccc2nn(CC3CCN(C(=O)c4ccc(-c5ccc(F)cc5)cc4)CC3)cc2c1C [Example 5, 2-({1-[(4′-fluorobiphenyl-4-yl)carbonyl]piperidin-4-yl}methyl)-N-(2-methoxy-ethyl)-4-methyl-2H-indazol-5-carboxamide] | 5.11 | xxx (xxx > 100) | xxx (xxx > 100) |  | 59 | 56 |  | 
6 | COCCNC(=O)c1ccc2nn(CC3CCN(C(=O)c4ccc(Cl)cc4)CC3)cc2c1C [Example 56, 2-{[1-(4-chlorobenzoyl)piperidin-4-yl]methyl}-N-(2-methoxyethyl)-4-methyl-2H-indazol-5-carboxamide] | 13.1 | xxx (xxx > 100) | xxx (xxx > 100) |  |  |  | 12 | 2
